# Reference: patent EP0326331B1, “Substituted quinolines and cinnolines” (Dow AgroSciences LLC, priority 1988, dated 1989)
# Experiments:
# Format in all cases: in vivo
# [1] = tested on: Erysiphe graminis tritici (powdery mildew); assay: Test 1 greenhouse foliar spray screen, powdery mildew on wheat; details: disease control rating, foliar spray on wheat, 400 ppm (+++ at 100 ppm)
# [2] = tested on: Pyricularia oryzae (rice blast); assay: whole plant or invertebrate; details: disease control rating, foliar spray on rice, 400 ppm (+++ at 100 ppm)
# [3] = tested on: Puccinia recondita tritici (leaf rust); assay: Test 1 greenhouse foliar spray screen, leaf rust on wheat; details: disease control rating, foliar spray on wheat, 400 ppm (+++ at 100 ppm)
# [4] = tested on: Botrytis cinerea (gray mold); assay: Test 1 greenhouse foliar spray screen, gray mold on grape berries; details: disease control rating, spray on grape berries, 400 ppm (+++ at 100 ppm)
# [5] = tested on: Pseudoperonospora cubensis (downy mildew); assay: Test 1 greenhouse foliar spray screen, downy mildew on squash; details: disease control rating, foliar spray on squash, 400 ppm (+++ at 100 ppm)
# [6] = tested on: southern armyworm (Spodopetra eridania Cramer); assay: Mite/insect screen, SAW; details: Spodoptera eridania, percent mortality, SAW, read-out: SAW RESULTS %; for mortality at 200 ppm: SM & MA RATE 200 PPM; for mortality at 400 ppm: SM & MA RATE 400 PPM
# Experimental: (§1) The compounds of Examples 1-295 were tested for miticidal and insecticidal activity in the following mite/insect screen.
# (§2) Each test compound was formulated by dissolving the compound in acetone/alcohol (50:50) mixture containing 23 g of "TOXIMUL R" (sulfonate/nonionic emulsifier blend) and 13 g of "TOXIMUL S" (sulfonate/nonionic emulsifier blend) per liter. These mixtures were then diluted with water to give the indicated concentrations.
# (§3) Other plants in the same treatment pot were left uninfested. The leaves were then sprayed with 5 ml of test solution using a DeVilbiss atomizing sprayer at 10 psi. Both surfaces of the leaves were covered until runoff, and then allowed to dry for one hour. Two uninfested leaves were then excised and placed into a Petri dish containing southern armyworm (Spodopetra eridania Cramer).
# (§4) After standard exposure periods, percent mortality was evaluated. […]
# [7] = tested on: Twospotted spider mites (Tetranychus urticae Koch); assay: Mite/insect screen, SM; details: for mortality at 200 ppm / mortality at 400 ppm: Tetranychus urticae, percent mortality, SAW, read-out: SM RESULTS %; for mortality at 200 ppm: SM & MA RATE 200 PPM; for mortality at 400 ppm: SM & MA RATE 400 PPM
# Experimental: as §1, §2, §3, §4
# [8] = tested on: melon aphids (Aphis gossypii Glover); assay: Mite/insect screen, MA; details: Aphis gossypii, percent mortality, SAW, read-out: MA RESULTS %; for mortality at 200 ppm: SM & MA RATE 200 PPM; for mortality at 400 ppm: SM & MA RATE 400 PPM
# Experimental: as §1, §2, §3, §4
# [9] = tested on: corn rootworm; assay: Mite/insect screen, CRW; details: percent mortality, read-out: CRW RESULTS %; for mortality at 12 ppm: CRW RATE 12.00 PPM; for mortality at 24 ppm: CRW RATE 24.00 PPM
# Experimental: as §1, §2, §4
Compound,POWD MDEW [1],RICE BLAST [2],LEAF RUST [3],GRAY MOLD [4],DOWN MDEW [5],mortality at 200 ppm [6] [%],mortality at 400 ppm [6] [%],mortality at 200 ppm [7] [%],mortality at 400 ppm [7] [%],mortality at 200 ppm [8] [%],mortality at 400 ppm [8] [%],mortality at 12 ppm [9] [%],mortality at 24 ppm [9] [%],activity as miticides ([7]; summary statement in the description)
"FC(F)(F)c1cccc2c(NCCc3ccc(Cl)cc3)ccnc12 [Example 86, N-[2-(4-chlorophenyl)ethyl]-8-(trifluoromethyl)-4-quinolinamine]",- (0-19% control at 400 ppm),- (0-19% control at 400 ppm),+ (20-89% control at 400 ppm),- (0-19% control at 400 ppm),+ (20-89% control at 400 ppm),0,0,0,0,0,0,0,0,–
"Fc1cccc2c(NCCc3ccc(Oc4ccccc4)cc3)ccnc12 [Example 90, 8-fluoro-N-[2-(4-phenoxyphenyl)ethyl]-4-quinolinamine]",- (0-19% control at 400 ppm),+++ (90-100% control at 100 ppm),+++ (90-100% control at 100 ppm),- (0-19% control at 400 ppm),+++ (90-100% control at 100 ppm),100,0,80,0,80,0,0,0,particularly excellent activity
"COc1ccccc1CCNc1ccnc2cc(Cl)ccc12 [Example 100, 7-chloro-N-[2-(2-methoxyphenyl)ethyl]-4-quinolinamine]",+ (20-89% control at 400 ppm),+ (20-89% control at 400 ppm),+ (20-89% control at 400 ppm),- (0-19% control at 400 ppm),+ (20-89% control at 400 ppm),0,0,0,0,0,0,0,0,–
"Cc1cc(NCCc2ccc(Cl)cc2)c2ccccc2n1 [Example 102, N-[2-(4-chlorophenyl)ethyl]-2-methyl-4-quinolinamine]",+ (20-89% control at 400 ppm),+ (20-89% control at 400 ppm),- (0-19% control at 400 ppm),- (0-19% control at 400 ppm),- (0-19% control at 400 ppm),0,50,0,0,0,0,0,0,–
"Cc1ccc(C)c2c(NCCc3ccc(Cl)cc3)ccnc12 [Example 109, N-[2-(4-chlorophenyl)ethyl]-5,8-dimethyl-4-quinolinamine]",+ (20-89% control at 400 ppm),+ (20-89% control at 400 ppm),++ (90-100% control at 400 ppm),- (0-19% control at 400 ppm),+++ (90-100% control at 100 ppm),–,0,–,0,–,0,–,0,–
"Nc1cccc2c(NCCc3ccc(Cl)cc3)ccnc12 [Example 110, N(4)-[2-(4-chlorophenyl)ethyl]-4,8-quinolinediamine]",- (0-19% control at 400 ppm),+ (20-89% control at 400 ppm),++ (90-100% control at 400 ppm),- (0-19% control at 400 ppm),++ (90-100% control at 400 ppm),0,0,0,0,0,0,0,0,–
"Clc1ccccc1CCNc1ccnc2c(Cl)cccc12 [Example 115, N-[2-(2-chlorophenyl)ethyl]-8-chloro-4-quinolinamine]",- (0-19% control at 400 ppm),+ (20-89% control at 400 ppm),- (0-19% control at 400 ppm),- (0-19% control at 400 ppm),+ (20-89% control at 400 ppm),0,0,0,0,0,0,0,0,–
"CC(=O)N(CCc1ccc(Cl)cc1)c1ccnc2ccc(F)cc12 [Example 121, N-[2-(4-chlorophenyl)ethyl]-N-(6-fluoro-4-quinolinyl)acetamide]",+ (20-89% control at 400 ppm),- (0-19% control at 400 ppm),++ (90-100% control at 400 ppm),- (0-19% control at 400 ppm),+ (20-89% control at 400 ppm),0,0,0,0,0,0,0,0,–
"COc1ccc(CCN(C(C)=O)c2ccnc3cc(Cl)ccc23)cc1 [Example 125, N-(7-chloro-4-quinolinyl)-N-[2-(4-methoxyphenyl)ethyl]acetamide]",+ (20-89% control at 400 ppm),- (0-19% control at 400 ppm),- (0-19% control at 400 ppm),- (0-19% control at 400 ppm),- (0-19% control at 400 ppm),0,0,0,0,0,0,0,0,–
"CC(=O)N(CCc1ccc(Cl)cc1Cl)c1ccnc2cc(C(F)(F)F)ccc12 [Example 127, N-[2-(2,4-dichlorophenyl)ethyl]-N-[7-(trifluoromethyl)-4-quinolinyl]acetamide]",+ (20-89% control at 400 ppm),+ (20-89% control at 400 ppm),+ (20-89% control at 400 ppm),- (0-19% control at 400 ppm),+ (20-89% control at 400 ppm),0,0,0,0,0,0,0,0,–
"CC(=O)N(CCc1ccc(C(C)(C)C)cc1)c1ccnc2c(F)cccc12 [Example 128, N-[4-(t-butyl)phenyl]ethyl-N-(8-fluoro-4-quinolinyl)acetamide]",- (0-19% control at 400 ppm),+ (20-89% control at 400 ppm),+ (20-89% control at 400 ppm),- (0-19% control at 400 ppm),- (0-19% control at 400 ppm),0,0,0,0,0,0,0,0,–
"CC(=O)N(CCc1ccc(-c2ccccc2)cc1)c1ccnc2c(F)cccc12 [Example 130, N-[2-(1,1'-biphenyl)-4-ylethyl]-N-(8-fluoro-4-quinolinyl)acetamide]",- (0-19% control at 400 ppm),- (0-19% control at 400 ppm),- (0-19% control at 400 ppm),- (0-19% control at 400 ppm),- (0-19% control at 400 ppm),0,0,0,0,0,0,0,0,–
